This experiment deals with PBMC. Put plainly: Overnight IFNγ ELISpot assay with fresh PBMC (Example 2). It counts as cell-based, human. The following applies: for Percent of maximal response, ELISp: after oral gluten challenge; for IFNγ ELISpot % max Mean: individual peptides 5 μM, Day-6, n = 5, Peptide 2 = CSBio batch. Here is the method:
Ten HLA-DQ2.5+ adults with celiac disease diagnosed according to the National Institutes of Health Consensus Statement 2004 were enrolled (Table 7).^22 Subjects were required to have followed gluten-free diet for at least one year and without known gluten exposures within the previous two-months. […] Full inclusion and exclusion criteria are described in Table 8. Each of 3 consecutive days subjects consumed 3 cookies that were prepared from approximately 4.5 g wheat gluten, 3 g barley flour protein, and 1.5 g rye flour protein. Blood was collected before and six days after commencing the oral challenge. Blood was collected using a 21G butterfly needle directly into 10 mL lithium heparin tubes (BD Vacutainer® Heparin tube #367880) and QuantiFERON® NIL (0591-0205, Cellestis Ltd., Chadstone VIC 3148 Australia) and QuantiFERON® MITOGEN (0593-0201, Cellestis Ltd.).
Overnight IFNγ ELISpot assays (Human IFN-γ ELISpotPRO kit, transparent, ALP; Mabtech AB, #3420-2APT-10) were performed using PBMC freshly separated from heparinized blood diluted 1:1 in PBS with 2% fetal bovine serum (Stemcell Technologies #07905; Vancouver, BC, V5Z 1B3, Canada) overlaid on density gradient medium (Ficoll-Paque™ PLUS; GE Healthcare Lice Sciences #:17-1440-02) in SepMate™-50 tubes (Stemcell Technologies #15460). PBMC (8 million/mL) were resuspended in serum-free medium with gentamicin and phenol red (X-VIVO™15; Lonza, Walkersville Mass. 21793). PBMC (0.4 million/50 μL/well) and incubated with 50 μL 80% X-vivol5, 0.2% DMSO and 20% PBS in three triplicate wells (“medium only”), or with 50 μL PHA-L 20 μg/ml or peptide at 2× final concentration in 80% X-vivol5, 0.2% DMSO and 20% PBS. Peptide solutions to be added to individual ELISpot wells were prepared in 96-well U-bottom plates (60 μL/well) that were then sealed with adhesive ELISA plate cover slips before replacing the plastic lid and being frozen at −80° C. 96-well plates containing peptide solutions were thawed at room temperature for 10 min while being centrifuged at 300 g immediately prior to being added to ELISpot wells. Peptide pools and mitogen were assessed in triplicate wells, and individual peptides were assessed in duplicate wells. X-VIVO™15 (50 μL) was incubated with 80% X-vivol5, 0.2% DMSO and 20% PBS (50 μL) in triplicate wells (“no PBMC” control). A Zeiss automated ELISpot counter was used to determine spot forming units (SFU) per well (Zellnet Inc., Fort Lee, N.J. 07024). Laboratory staff were unaware of the arrangement of peptide solutions in ELISpot wells during assay setup and plate counting.

Non-standard residues stand in square brackets, D forms with d. pGlu = O=C1CC[C@@H](C(=O)O)N1

As to “(pE)LQPFPQPELPYPQPQ-amide ([pGlu]LQPFPQPELPYPQPQ-NH2; SMILES CC(C)C[C@H](NC(=O)[C@@H]1CCC(=O)N1)C(=O)N[C@@H](CCC(N)=O)C(=O)N1CCC[C@H]1C(=O)N[C@@H](Cc1ccccc1)C(=O)N1CCC[C@H]1C(=O)N[C@@H](CCC(N)=O)C(=O)N1CCC[C@H]1C(=O)N[C@@H](CCC(=O)O)C(=O)N[C@@H](CC(C)C)C(=O)N1CCC[C@H]1C(=O)N[C@@H](Cc1ccc(O)cc1)C(=O)N1CCC[C@H]1C(=O)N[C@@H](CCC(N)=O)C(=O)N1CCC[C@H]1C(=O)N[C@@H](CCC(N)=O)C(N)=O) [Peptide 1]”, the “IFNγ ELISpot % max Mean” value is listed as 13 % max. Moreover, the “Percent of maximal response, ELISp” value (Subject 3, Max. 18 SFU) is given as 11 % of max. In addition, the “Percent of maximal response, ELISp” value (Subject 4, Max. 36 SFU) is 22 % of max. The “Percent of maximal response, ELISp” value (Subject 6, Max. 16 SFU) is on record as 25 % of max. For the same substance, for the setting “Subject 8, Max. 17 SFU”, the “Percent of maximal response, ELISp” value is on record as 0 % of max. The “Percent of maximal response, ELISp” value (Subject 10, Max. 11 SFU) is given as 9 % of max.
For “(pE)PEQPIPEQPQPYPQQ-amide ([pGlu]PEQPIPEQPQPYPQQ-NH2; SMILES CC[C@H](C)[C@H](NC(=O)[C@@H]1CCCN1C(=O)[C@H](CCC(N)=O)NC(=O)[C@H](CCC(=O)O)NC(=O)[C@@H]1CCCN1C(=O)[C@@H]1CCC(=O)N1)C(=O)N1CCC[C@H]1C(=O)N[C@@H](CCC(=O)O)C(=O)N[C@@H](CCC(N)=O)C(=O)N1CCC[C@H]1C(=O)N[C@@H](CCC(N)=O)C(=O)N1CCC[C@H]1C(=O)N[C@@H](Cc1ccc(O)cc1)C(=O)N1CCC[C@H]1C(=O)N[C@@H](CCC(N)=O)C(=O)N[C@@H](CCC(N)=O)C(N)=O) [Peptide 3]”, the “IFNγ ELISpot % max Mean” value worked out at 53 % max. The “IFNγ ELISpot responses relative to Peptide 14 5 μM” value (Peptide 3 10 μg/mL (5.3 μM)) is given as “one-half”. Moreover, where the note is “Subject 3, Max. 18 SFU”, the “Percent of maximal response, ELISp” value was 50 % of max. In addition, the “Percent of maximal response, ELISp” value (Subject 4, Max. 36 SFU) is on record as 83 % of max. The “Percent of maximal response, ELISp” value (Subject 6, Max. 16 SFU) is reported as 69 % of max. The “Percent of maximal response, ELISp” value (Subject 8, Max. 17 SFU) is recorded as 53 % of max. The “Percent of maximal response, ELISp” value (Subject 10, Max. 11 SFU) was 9 % of max.
